Tests used:
MDA-MB-435-MDR cells = test: Cytotoxicity, MTS assay; conditions: 4 hours treatment, viability after 24 hours, 16 μg/mL DOX
Description: The cell lines which were used were the MDA-MB-435 (Parent) and MDA-MB-435-MDR (MDR) cell lines.
Cytotoxicity was measured by treating MDA-MB-435 (Parent) and MDA-MB-435-MDR cells for 4 hours with free doxorubicin and encapsulated doxorubicin using various formulations of mixed micelles. After 4 hours the doxorubicin was rinsed from the cells. After 24 hours the cell viability was measured using an MTS assay. MDA-MB-435 cells were treated with 4 μg/mL DOX, and […] cells were treated with 16 μg/mL DOX.

[1] = Stability of ICG in micelles in vitro (decay of fluorescence emission in water); type: physicochemical; conditions: within forty-eight hours, deionized water, dark
Text: ICG has advantageous fluorescence properties for near-infrared imaging (NIR) in vivo but limitations include the molecule's photo, aqueous, and thermal instability as well as rapid binding to blood proteins and subsequent clearance by the liver. See, e.g., Cherrick, J. Clin. Invest. 39:592-600 (1959) and Kirchherr, et al., Mol. Pharmaceut. 6:480-491 (2009). Aqueous degradation of ICG occurs as a result of double bond saturation in the molecule's conjugated chain, and sequestering the molecule from the solvent radicals that activate this process reduces the rate of its degradation. See, e.g., Kirchherr et al., and Altinoglu and Adair, Wiley Interdisciplinary Reviews—Nanomedicine and Nanobiotechnology, 2:[…] (2010). To test the ability of the mixed micelle systems to stabilize ICG, the fluorescence of encapsulated dye was monitored over time at both room temperature and 37° C.
Stability of ICG in mixed micelles was evaluated by measuring decay of fluorescence emission in solution over a period of approximately ten days. […] At predetermined intervals, each mixture was sampled and the fluorescence intensity of the sample was evaluated with excitation at 775 nm and emission from 786 to 850 nm.

ICG fluorescence, % of original fluorescence value ([1]; 37° C.)	ICG fluorescence, % of original fluorescence value ([1]; room temperature)	Structure (SMILES)	cytotoxicity (cell viability, in words) (MDA-MB-435-MDR cells)
		COc1cccc2c1C(=O)c1c(O)c3c(c(O)c1C2=O)C[C@@](O)(C(=O)CO)C[C@@H]3O[C@H]1C[C@H](N)[C@H](O)[C@H](C)O1 [Unencapsulated DOX, Doxorubicin]	limited effect
less than 10%	less than 10%	CC1(C)C(/C=C/C=C/C=C/C=C2\N(CCCCS(=O)(=O)O)c3ccc4ccccc4c3C2(C)C)=[N+](CCCCS(=O)(=O)[O-])c2ccc3ccccc3c21 [free ICG, indocyanine green]	

Source: patent US9655981B2, “Mixed micelles” (Omeros Corporation, priority 2011, dated 2017)
